For 15 compounds, Kd, IC50 and inhibition results are on record in patent US9845319B2, “Amide substituted thiazoles as modulators of RORyt” (Janssen Pharmaceutica NV, priority 2014, dated 2017).

Experiment [1] deals with T1, human RORγt ligand binding domain (RORγt LBD) (Homo sapiens, UniProt P51449).
T1 construct: His-tag (N); TurboTEV protease cleavage site (ENLYFQG) (N); made in house; host or cells: E. coli (pHIS1, a modified pET expression vector)
T1 sequence (P51449 with tags, fused parts or gaps): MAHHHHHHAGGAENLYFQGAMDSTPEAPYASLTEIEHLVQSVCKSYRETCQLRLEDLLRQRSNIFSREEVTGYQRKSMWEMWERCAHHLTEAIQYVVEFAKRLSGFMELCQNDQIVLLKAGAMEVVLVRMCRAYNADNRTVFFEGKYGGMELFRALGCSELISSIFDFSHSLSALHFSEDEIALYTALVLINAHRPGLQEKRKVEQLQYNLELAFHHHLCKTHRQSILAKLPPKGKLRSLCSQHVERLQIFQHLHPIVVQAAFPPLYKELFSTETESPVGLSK
Put plainly: RORγt ThermoFluor assay. The note with it: estimated from thermal shift concentration response. A digest of the protocol:
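Thermal shift of RORγt LBD (0.065 mg/mL) with 60 μM 1,8-ANS in 100 mM Hepes pH 7.0, NaCl, GSH, 0.002% Tween-20, heated at 1° C/min. ANS fluorescence tracked versus temperature; ΔTm relative to DMSO wells. Compounds serially diluted 1:2 from 10 mM DMSO stock.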

In a further experiment the target is T2, full-length human RORγt (Homo sapiens, UniProt P51449).
T2 construct: expressed in transfected cells; host or cells: HEK293T, transiently transfected with pCMV-BD-ROR
T2 sequence (P51449 1-497 isoform P51449-2): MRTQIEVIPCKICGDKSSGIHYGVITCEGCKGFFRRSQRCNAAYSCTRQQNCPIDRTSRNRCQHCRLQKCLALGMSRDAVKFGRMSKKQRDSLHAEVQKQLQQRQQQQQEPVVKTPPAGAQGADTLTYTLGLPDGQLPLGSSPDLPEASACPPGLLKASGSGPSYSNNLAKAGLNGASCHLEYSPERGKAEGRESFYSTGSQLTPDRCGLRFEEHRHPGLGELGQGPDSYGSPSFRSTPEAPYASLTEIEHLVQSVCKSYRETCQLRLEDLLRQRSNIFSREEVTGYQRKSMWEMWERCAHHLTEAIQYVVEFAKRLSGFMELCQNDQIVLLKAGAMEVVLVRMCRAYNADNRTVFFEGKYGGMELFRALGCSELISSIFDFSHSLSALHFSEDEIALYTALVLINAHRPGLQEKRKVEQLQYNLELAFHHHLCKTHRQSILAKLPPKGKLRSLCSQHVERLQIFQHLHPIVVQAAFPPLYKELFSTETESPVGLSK
The experiment can be described thus: RORγt (full-length human) Reporter Assay, Conditions A. Type of experiment: cell-based. The note with it: for IC50: HEK293T cells, GAL4-DBD-RORγt, luciferase, read-out: RORγt (FL) Reporter Assay A, IC50; for inhibition at 6 µM: read-out: RORγt (FL) Reporter Assay A, % inhibition @ 6 μM, 6 μM compound; for inhibition at 2 µM: read-out: RORγt (FL) Reporter Assay A, % inhibition (* at 2 μM), 2 μM compound concentration (footnote *). A digest of the protocol: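 Dual-luciferase readout after overnight (16 to 20 hours) treatment: firefly values scaled between DMSO-only and saturating reference-compound controls, then corrected by Renilla. Percent inhibition calculated against DMSO control, with IC50 derived from concentration-response plots.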
For orientation: Reporter assays use an easily measured gene product as a stand-in for the process of interest.

Usually Kd stands for a measure of binding affinity in units of concentration. As usually defined, the IC50 is the midpoint of a concentration-inhibition curve. For orientation: inhibition means the change of the read-out against control, counted positive when it falls. With `C[C@H](NS(=O)(=O)c1ccc(-c2sc(-c3nnc(CC(C)(C)O)o3)nc2C(=O)N2CCC(F)(F)C2)c(Cl)c1Cl)C(F)(F)F` [Example 3/1, (S)-2,3-Dichloro-4-(4-(3,3-difluoropyrrolidine-1-carbonyl)-2-(5-(2-hydroxy-2-methylpropyl)-1,3,4-oxadiazol-2-yl)thiazol-5-yl)-N-(1,1,1-trifluoropropan-2-yl)benzenesulfonamide], the dissociation constant Kd in experiment [1] was 16 nM. On full-length human RORγt, the IC50 was 57 nM and the inhibition at 6 µM was determined as 109%.
On the same counts, the results for `CCN(C(=O)c1nc(-c2nnc(C(C)(C)O)o2)sc1-c1ccc(S(=O)(=O)N[C@@H](C)C(F)(F)F)c(Cl)c1Cl)C(C)C` [Example 6/7, (S)-5-(2,3-Dichloro-4-(N-(1,1,1-trifluoropropan-2-yl)sulfamoyl)phenyl)-N-ethyl-2-(5-(2-hydroxypropan-2-yl)-1,3,4-oxadiazol-2-yl)-N-isopropylthiazole-4-carboxamide] are 1.7 nM, 38 nM and 113%.
Regarding `C[C@H](NS(=O)(=O)c1ccc(-c2sc(-c3nnc(C(C)(C)O)o3)nc2C(=O)N2CCC(F)(F)CC2)c2c1CCCO2)C(F)(F)F` [Example 24, 8-(4-(4,4-Difluoropiperidine-1-carbonyl)-2-(5-(2-hydroxypropan-2-yl)-1,3,4-oxadiazol-2-yl)thiazol-5-yl)-N—((S)-1,1,1-trifluoropropan-2-yl)chroman-5-sulfonamide], in experiment [1], the dissociation constant (Kd) was 5.2 nM. Moreover, on full-length human RORγt, the half-maximal inhibitory concentration (IC50) was 190 nM and the inhibition at 6 µM stood at 97%.
On the same counts, the results for `CC[C@H](NS(=O)(=O)c1ccc(-c2sc(-c3nnc(C(C)(C)O)o3)nc2C(=O)N2CCC(F)(F)CC2)c(C(F)F)c1F)C(F)(F)F` [Example 6/3, (S)-3-(Difluoromethyl)-4-(4-(4,4-difluoropiperidine-1-carbonyl)-2-(5-(2-hydroxypropan-2-yl)-1,3,4-oxadiazol-2-yl)thiazol-5-yl)-2-fluoro-N-(1,1,1-trifluorobutan-2-yl)benzenesulfonamide] are 1.7 nM, 27 nM and 110%.
On the same counts, the results for `CC(C)(O)c1nnc(-c2nc(C(=O)N3CCC(F)(F)CC3)c(-c3ccc(S(=O)(=O)NC(C)(C)C(F)(F)F)c(F)c3Cl)s2)o1` [Example 6/19, 3-Chloro-4-(4-(4,4-difluoropiperidine-1-carbonyl)-2-(5-(2-hydroxypropan-2-yl)-1,3,4-oxadiazol-2-yl)thiazol-5-yl)-2-fluoro-N-(1,1,1-trifluoro-2-methylpropan-2-yl)benzenesulfonamide] are 6.1 nM, 76 nM and 107%.
On the same counts, the results for `CC[C@H](NS(=O)(=O)c1ccc(-c2sc(-c3noc(CC(C)(C)C(=O)O)n3)nc2C(=O)N2CCC(F)(F)CC2)c(C(F)F)c1Cl)C(F)(F)F` [Example 10/1, (S)-3-(3-(5-(3-Chloro-2-(difluoromethyl)-4-(N-(1,1,1-trifluorobutan-2-yl)sulfamoyl)phenyl)-4-(4,4-difluoropiperidine-1-carbonyl)thiazol-2-yl)-1,2,4-oxadiazol-5-yl)-2,2-dimethylpropanoic acid] are 0.0014 nM, 66 nM and 104%.
Regarding `CCN(CC)C(=O)c1nc(-c2nnc(C(C)(C)O)[nH]2)sc1-c1ccc(C(O)(C(F)(F)F)C(F)(F)F)c(Cl)c1Cl` [Example 9, 5-(2,3-Dichloro-4-(1,1,1,3,3,3-hexafluoro-2-hydroxypropan-2-yl)phenyl)-N,N-diethyl-2-(5-(2-hydroxypropan-2-yl)-4H-1,2,4-triazol-3-yl)thiazole-4-carboxamide], the Kd in experiment [1] was 32 nM. For the same compound, at full-length human RORγt, the IC50 is 120 nM and the inhibition at 2 µM was found to be 99%.
On the same counts, the results for `CC[C@H](NS(=O)(=O)c1ccc(-c2sc(-c3cccc(CC(C)(C)C(=O)O)n3)nc2C(=O)N2CC(F)(F)C[C@@H]2C)c(C(F)F)c1F)C(F)(F)F` [Example 19/1, 3-(6-(4-((S)-4,4-Difluoro-2-methylpyrrolidine-1-carbonyl)-5-(2-(difluoromethyl)-3-fluoro-4-(N—((S)-1,1,1-trifluorobutan-2-yl)sulfamoyl)phenyl)thiazol-2-yl)pyridin-2-yl)-2,2-dimethylpropanoic acid] are 0.023 nM, 10 nM and 98%.
For the compound `C[C@H](NC(=O)c1cc(-c2sc(-c3nnc(C(C)(C)O)o3)nc2C(=O)N2CCC(F)CC2)cc(C2(C)CC2)c1)C(F)(F)F` [Example 6/10, (S)-3-(4-(4-Fluoropiperidine-1-carbonyl)-2-(5-(2-hydroxypropan-2-yl)-1,3,4-oxadiazol-2-yl)thiazol-5-yl)-5-(1-methylcyclopropyl)-N-(1,1,1-trifluoropropan-2-yl)benzamide], the Kd in experiment [1] was 45 nM. On full-length human RORγt, the half-maximal inhibitory concentration (IC50) stood at 210 nM and the inhibition at 6 µM was 101%.
Regarding `CCN(CC)C(=O)c1nc(-c2nnc(CC(C)(C)O)o2)sc1-c1ccc(S(=O)(=O)N[C@@H](C)C(F)(F)F)c(Cl)c1Cl` [Example 3/3, (S)-5-(2,3-Dichloro-4-(N-(1,1,1-trifluoropropan-2-yl)sulfamoyl)phenyl)-N,N-diethyl-2-(5-(2-hydroxy-2-methylpropyl)-1,3,4-oxadiazol-2-yl)thiazole-4-carboxamide], the dissociation constant (Kd) in experiment [1] was 10 nM. For the same compound, on full-length human RORγt, the 50% inhibitory concentration (IC50) is 27 nM and the inhibition at 6 µM was found to be 107%.
For the compound `CCN(CC)C(=O)c1nc(-c2cc(C(C)(C)O)ccn2)sc1-c1ccc(S(=O)(=O)N[C@@H](C)C(F)(F)F)c(Cl)c1Cl` [Example 17/1, (S)-5-(2,3-Dichloro-4-(N-(1,1,1-trifluoropropan-2-yl)sulfamoyl)phenyl)-N,N-diethyl-2-(4-(2-hydroxypropan-2-yl)pyridin-2-yl)thiazole-4-carboxamide], the Kd in experiment [1] is 7.8 nM. Besides, the inhibition at 0.22 µM on full-length human RORγt (0.22 μM compound concentration (footnote ***), read-out: RORγt (FL) Reporter Assay A, % inhibition (*** at 0.22 μM)) was determined as 91%. The IC50 on full-length human RORγt came out at 27 nM.
On to `C[C@H](NS(=O)(=O)c1ccc(-c2sc(-c3noc(C(C)(C)O)n3)nc2C(=O)N2CCC(F)CC2)c(C(F)F)c1F)C(F)(F)F` [Example 11/1, (S)-3-(Difluoromethyl)-2-fluoro-4-(4-(4-fluoropiperidine-1-carbonyl)-2-(5-(2-hydroxypropan-2-yl)-1,2,4-oxadiazol-3-yl)thiazol-5-yl)-N-(1,1,1-trifluoropropan-2-yl)benzenesulfonamide], for which the dissociation constant Kd in experiment [1] is 31 nM. On full-length human RORγt, the IC50 is 120 nM and the inhibition at 6 µM worked out at 103%.
For `CC(C)(O)c1nnc(-c2nc(C(=O)N3CC(F)(F)CC3(C)C)c(-c3ccc(S(=O)(=O)NC4(C(F)F)CC4)c(F)c3Cl)s2)o1` [Example 6/22, 3-Chloro-4-(4-(4,4-difluoro-2,2-dimethylpyrrolidine-1-carbonyl)-2-(5-(2-hydroxypropan-2-yl)-1,3,4-oxadiazol-2-yl)thiazol-5-yl)-N-(1-(difluoromethyl)cyclopropyl)-2-fluorobenzenesulfonamide], in experiment [1], the equilibrium dissociation constant (Kd) was 1200 nM. Besides, at full-length human RORγt, the half-inhibitory concentration (IC50) turned out to be 1600 nM and the inhibition at 6 µM is 74%.
In the case of `C[C@H](NS(=O)(=O)c1ccc(-c2sc(-c3cc(C(C)(C)O)on3)nc2C(=O)N2CCC(F)(F)CC2)c(Cl)c1Cl)C(F)(F)F` [Example 13, (S)-2,3-Dichloro-4-(4-(4,4-difluoropiperidine-1-carbonyl)-2-(5-(2-hydroxypropan-2-yl)isoxazol-3-yl)thiazol-5-yl)-N-(1,1,1-trifluoropropan-2-yl)benzenesulfonamide], the dissociation constant (Kd) in experiment [1] was 1.3 nM. Also, at full-length human RORγt, the half-inhibitory concentration (IC50) is 12 nM and the inhibition at 2 µM was determined as 105%.
On the same counts, the results for `CC1CCN(C(=O)c2nc(-c3nnc(C(C)(C)O)o3)sc2-c2ccc(S(=O)(=O)N[C@@H](C)C(F)(F)F)c3ccccc23)CC1` [Example 4, (S)-4-(2-(5-(2-Hydroxypropan-2-yl)-1,3,4-oxadiazol-2-yl)-4-(4-methylpiperidine-1-carbonyl)thiazol-5-yl)-N-(1,1,1-trifluoropropan-2-yl)naphthalene-1-sulfonamide] are 1.5 nM, 19 nM and 103%.
